Article PMC7938888, “Antidepressant drugs act by directly binding to TRKB neurotrophin receptors” (Cell, 2021)

Experiments:
GFP-TRKB = biological target: T1, GFP-TRKB (Mus musculus, UniProt P15209); experiment: Microscale thermophoresis (MST) in lysates of GFP-TRKB expressing HEK293T cells; type: binding; conditions: CHOL 10–100 μM, 15 min, HEK293T cell lysates; read-out: affinity of direct interaction with GFP-TRKB (MST)
T1 construct: wild-type GFP-tagged full length TRKB or the GFP-tagged Y433F TRKB mutant; host or cells: HEK293T
T1 sequence (P15209 32-821): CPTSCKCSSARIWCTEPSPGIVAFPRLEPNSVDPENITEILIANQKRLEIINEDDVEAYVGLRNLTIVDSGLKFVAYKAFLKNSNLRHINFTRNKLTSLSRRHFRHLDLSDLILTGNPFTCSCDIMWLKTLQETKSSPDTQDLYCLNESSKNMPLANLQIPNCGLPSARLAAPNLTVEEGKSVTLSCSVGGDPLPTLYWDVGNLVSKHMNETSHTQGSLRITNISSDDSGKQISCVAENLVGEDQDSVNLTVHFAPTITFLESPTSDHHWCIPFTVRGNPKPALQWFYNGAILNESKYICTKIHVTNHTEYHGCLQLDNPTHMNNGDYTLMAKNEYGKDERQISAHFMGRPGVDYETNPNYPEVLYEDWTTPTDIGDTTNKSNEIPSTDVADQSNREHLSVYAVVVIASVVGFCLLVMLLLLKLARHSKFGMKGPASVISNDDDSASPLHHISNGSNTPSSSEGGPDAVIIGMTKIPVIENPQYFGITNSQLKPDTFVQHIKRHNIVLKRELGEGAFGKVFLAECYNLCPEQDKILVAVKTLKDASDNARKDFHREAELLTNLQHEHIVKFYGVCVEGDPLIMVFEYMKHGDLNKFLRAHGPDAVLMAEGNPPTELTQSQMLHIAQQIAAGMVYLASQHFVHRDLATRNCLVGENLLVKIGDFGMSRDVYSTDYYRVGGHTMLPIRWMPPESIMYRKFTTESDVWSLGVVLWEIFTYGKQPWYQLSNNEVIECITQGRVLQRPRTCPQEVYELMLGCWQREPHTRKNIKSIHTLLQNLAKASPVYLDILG
Description: Microscale Thermophoresis - MST - experiments were performed using Monolith NT.115 (Blue/Red) instrument (NanoTemper Technologies GmbH, Germany). The cell lysates of HEK293T cells expressing GFP-TRKB were used as a source of fluorescently labeled TRKB. HEK293T cells were transfected with GFP-fused TRKB as described and lysed 24h after transfection. […] The lysates of non-transfected HEK293T cells were used to evaluate background fluorescence, which appeared to be undetectable in current MST set up. […] The measurements were done in premium coated capillaries (NanoTemper Technologies GmbH, MO-K025) using LED source with 470nm and 50% infrared-laser power at 25°C. Hill model was used to evaluate binding affinity, each data point represents mean ΔFnorm values from four independent experiments. The bound fraction of the GFP-TRKB was determined and the fitting was performed using the Hill model method incorporated by the MO Affinity Analysis v2.3 software (NanoTemper Technologies).

TRKB:PLC-γ1 interaction = TRKB:PLC-γ1 interaction ELISA in MG87 cells expressing TRKB; type: cell-based, mouse; conditions: cholesterol 20 μM/15 min
Description: The cell line NIH 3T3 (mouse fibroblasts) stably transfected to express TRKB or TRKA (MG87.TRKB or MG87.TRKA, respectively) were used for in vitro assays ([Antila et al., 2014]), N2A and HEK293T cells were used to overexpress GFP-tagged TRKB for binding assays. The cells were maintained at 5% CO2, 37°C in Dulbecco’s Modified Eagle’s Medium (DMEM, containing 10% fetal calf serum, 1% penicillin/streptomycin, 1% L-glutamine, and, in the case of MG87.TRKB cells, with […] of G418). The cell lines used in the present study were not authenticated or genotyped for sex.
The TRKB:pY (phosphorylated TRKB), TRKB:PLC-γ1, PLC-γ1:pTRKB.Y816 interactions and were determined by ELISA, based on the general method described in literature ([Antila et al., 2014]; [Fred et al., 2019]), with minor adjustments. Briefly, white 96-well plates (OptiPlate 96F-HB, Perkin Elmer) were coated with capturing anti-TRKB or PLC-γ1 antibody (1:1000) in carbonate buffer (pH = 9.8) overnight (ON) at 4°C. Following a blocking step with 2%BSA in TBS-T (2 h, RT), samples were incubated ON at 4°C. […] Finally, the chemiluminescent signal generated by the reaction with ECL was analyzed in a plate reader (Varioskan Flash, Thermo Scientific).

surface TRKB = experiment: Surface TRKB ELISA in primary cortical neurons; type: cell-based, rat; conditions: primary cortical neurons
Description: The surface levels of TRKB were also determined by ELISA ([Zheng et al., 2008]). Briefly, the MG87.TRKB cells or primary cortical cells from rat or mouse embryos, cultivated in clear bottom 96-well plates (ViewPlate 96, Perkin Elmer), were washed with ice-cold PBS and fixed with 100μl of 4% PFA per well. After washing with PBS and blocking with PBS containing 5% nonfat dry milk and 5% BSA, the samples were incubated with primary anti-TRKB antibody (R&D Systems, #AF1494, 1:1000 in blocking buffer) or anti-GluR1 subunit of AMPA receptors (CST, #8850, 1:2000 in blocking buffer) ON at 4°C. Following washing, the samples were incubated with HRP-conjugated anti-goat or anti-rabbit IgG (1:5000 in blocking buffer) for 1h at RT. The cells were washed 4x with 200μl of PBS for 10 min each. Finally, the chemiluminescent signal generated by reaction with ECL was analyzed in a plate reader.

| Compound | Kd (GFP-TRKB) | interaction of TRKB with PLC-γ1 (TRKB:PLC-γ1 interaction) | surface expression of TRKB (surface TRKB) |
| --- | --- | --- | --- |
| CC(C)CCC[C@@H](C)[C@H]1CC[C@H]2[C@@H]3CC=C4C[C@@H](O)CC[C@]4(C)[C@H]3CC[C@]12C [CHOL, cholesterol] | ~20 µM | promoted the interaction of TRKB |  |
| CNCCC(Oc1ccc(C(F)(F)F)cc1)c1ccccc1 (stereo not drawn) [FLX, fluoxetine] |  |  | increased the surface expression of TRKB |
